US12310938B2, “Compositions and methods for weight loss maintenance” (priority 2017, dated 2025)
Entries after “also recorded” stand apart in the source; their conditions may differ.

What was measured:
[1] = Study 4: chronic feeding trial, 15 weeks; type: in vivo, Sprague Dawley Rats; details: rats; for bodyweight (prevention of weight gain, maintaining a lower weight): in food, 25 g/kg/d, 15 weeks, compared to standard diet, BHB-S, S-MCT
Description: FIG. 3 depicts results of a chronic feeding trial in rats. SD: standard rodent chow (fed ad libitum); LKE: low-dose R,S 1,3-butanediol diacetoacetate (approx. 5 g/kg/day in food); HKE: high-dose R,S 1,3-butanediol diacetoacetate (approx. 25 g/kg/day in food); BHB-S: beta-hydroxybutyrate salt (approx. 25 g/kg/day in food); S-MCT: 1:1 beta-hydroxybutyrate salt: medium chain triglyceride oil (approx. 25 g/kg/day).

[2] = Study 5: weight loss to 20% with ketogenic agents vs caloric restriction, then return to ad libitum standard diet (weight loss maintenance); type: in vivo; details: C57BL/6J; for food efficiency during weight loss maintenance (bodyweight regain proportional to calories consumed, FIG. 6): after cessation of agent, ad libitum SD, compared to caloric restriction and butanediol; for weight loss as a ratio to caloric intake/day (FIG. 5B): compared to BHB, BHB+MCT and CR groups; for weight loss as ratio to kcal of ketogenic agent per total daily intake (FIGS. 4A-4B): compared to butanediol, BHB+MCT, BHB
Description: FIGS. 4A-4B depict results of weight loss induced by various ketogenic agents against regular SD caloric restriction, illustrating the effectiveness of various ketogenic agents for inducing weight loss. Treatments: Beta-Hydroxybutyrate (BHB); Beta-Hydroxybutyrate+Medium Chain Triglycerides (BHB+MCT); Butanediol (BD); R,S 1,3-Butanediol Acetoacetate Diester (KE).
FIGS. 5A-5B depict treatment timeline of weight loss study utilizing various ketogenic agents against SD caloric restriction, as well as evaluation of weight loss potency of each ketogenic agent. Treatments: Standard Diet ad-Libitum (SD-AL); Standard Diet Caloric Restriction (CR); Beta-Hydroxybutyrate (BHB); Beta-Hydroxybutyrate+Medium Chain Triglycerides (BHB+MCT); Butanediol (BD); R,S 1,3-Butanediol Acetoacetate Diester (KE). […] These reductions in bodyweight were at lower percentages of the ketogenic agent within the food. Additionally, KE animals reach target weight loss at much LOWER % of ketogenic agent integrated into the diet.
FIG. 6 depicts food efficiency during weight loss maintenance by calculating bodyweight regain proportional to calories consumed. Treatments: Standard Diet ad-Libitum (SD-AL); Standard Diet Caloric Restriction (CR); Beta-Hydroxybutyrate (BHB); Beta-Hydroxybutyrate+Medium Chain Triglycerides (BHB+MCT); Butanediol (BD); R,S 1,3-Butanediol Acetoacetate Diester (KE).
C57BL/6J animals were obtained. Prior to experimental initiation, animals were randomly assigned to one (1) of five (5) groups: Caloric Restriction with standard diet (SD), Beta-hydroxybutyrate with SD (BHB), BHB+Medium Chain Triglycerides with SD (BHB+MCT), 1,3-Butanediol with SD (BD), and R,S 1,3 Butanediol Acetoacetate Diester with SD (KE). All animals initiated weight loss by either reducing the amount of calories consumed (CR group) or adding various % of ketogenic agents to induce weight loss. There was no difference in bodyweight across groups at baseline. All animals underwent weight loss until 20% weight loss was achieved. Upon reaching 20% weight loss, animals were switched back onto ad-libitum SD.
Calories intake, bodyweight, and kcal of ketogenic agent in diet were recorded daily. In order to calculate the effectiveness of each agent to induce weight loss, weight loss as both grams and % weight loss, was compared as a ratio to the amount of kcal from each ketogenic agent compared to total kcals consumed a day.

[3] = Study 3: acute oral gavage trial, 7 days; type: in vivo, Sprague Dawley Rats; details: rats
Method: FIGS. 2A-2B depict results of an acute gavage trial in rats.
R,S 1,3 butanediol diacetoacetate (KE) was administered to Sprague Dawley Rats by oral gavage (at 5 mL/kg, which may translate to about 300-700 mg/kg for a human). Water, BHB-salt, or BHB-salt+MCT mixture was administered to other Sprague Dawley Rats for comparison. Animals were provided ad libitum access to standard rodent chow.

[4] = Study 1: chronic ad libitum feeding trial, 28 days; type: in vivo; details: VM/Dk mice, 10-20% by weight in standard chow; for bodyweight (weight loss and its maintenance): males and females, compared to SD or KD chow ad libitum
Method: FIGS. 1A-1H depict results of a chronic ad libitum feeding trial of male and female mice (Standard Diet Male (n=7)=SD-M; Ketogenic Diet Male (n=7)=KD-M; R/S 1,3 Butanediol Acetoacetate Diester (n=4)=KE-M; Standard Diet Female (n=7)=SD-F; Ketogenic Diet Female (n=6)=KD-F; R/S 1,3 Butanediol Acetoacetate Diester Female (n=4)=KE-F).
R,S 1,3-butanediol diacetoacetate (KE; 10-20% by weight mixed into standard chow) was administered to VM/Dk mice at for both males and females for 28 days. Standard rodent chow (SD) and ketogenic diet chow (KD) were administered to other VM/Dk mice ad libitum for comparison.

[5] = agent in standard diet until 20% weight loss

Compound	Approximate caloric intake compared to controls following adaptation to diet (weeks 13-15) ([1]; approx. 25 g/kg/day in food) [% kcal]	food efficiency during weight loss maintenance (bodyweight regain proportional to calories consumed, FIG. 6) [2]	food efficiency during weight loss maintenance (bodyweight regain proportional to calories consumed, FIG. 6) ([2]; listed as BHB)	weight loss as a ratio to caloric intake/day (FIG. 5B) [2]	bodyweight (prevention of weight gain, maintaining a lower weight) [1]	bodyweight (prevention of weight gain, maintaining a lower weight) ([1]; listed as R,S 1,3 butanediol diacetoacetate)	Approximate caloric intake compared to controls following adaptation to diet (weeks 13-15) ([1]; low dose, approx. 5 g/kg/day in food)	food efficiency during weight loss maintenance (bodyweight regain proportional to calories consumed, FIG. 6) ([2]; listed as R,S 1,3-butanediol diacetoacetate)	speed of bodyweight reduction and % of agent in the diet needed (FIG. 5A) [2, 5]	weight loss as ratio to kcal of ketogenic agent per total daily intake (FIGS. 4A-4B) [2, 5]	weight loss as ratio to kcal of ketogenic agent per total daily intake (FIGS. 4A-4B) ([2]; agent in standard diet until 20% weight loss, listed as R,S 1,3 Butanediol Acetoacetate diester)	bodyweight (prevention of weight gain, maintaining a lower weight) ([3]; gavage 5 g/kg once daily (5 mL/kg), ad libitum standard chow, compared to water, BHB-S, S-MCT, p<0.01)	calorie intake (self-restriction) ([3]; gavage once daily, ad libitum access to standard rodent chow)	white adipose tissue ([4]; compared to SD or KD)	bodyweight (weight loss and its maintenance) [4]	bodyweight (weight loss and its maintenance) ([4]; listed as ketone diester)
beta-hydroxybutyrate salt [BHB-S, reference compound]	~−25	help contribute to maintenance of weight loss after cessation of weight loss intervention by reducing food efficiency	more effective at inducing inefficiencies in kcal consumed; also recorded: had lingering effects on food efficiency and weight loss maintenance; also recorded: helped maintain weight loss post cessation of agent administration	could be explained by caloric restriction alone	–	–	–	–	–	–	–	–	–	–	–	–
CC(=O)CC(=O)OCCC(C)OC(=O)CC(C)=O (stereo not shown) [KE, R,S 1,3-butanediol diacetoacetate]	~−7	more effective at inducing inefficiencies in kcal consumed; also recorded: had lingering effects on food efficiency and weight loss maintenance	–	significantly more potent at inducing weight loss when divided by total caloric intake	more effective than BHB-S or S-MCT at preventing weight gain and maintaining a lower weight	significantly lower bodyweight	~+10% kcal	help contribute to maintenance of weight loss after cessation of weight loss intervention by reducing food efficiency	induced a quicker reduction in bodyweight; also recorded: induces more rapid weight loss	superior per kcal used at inducing weight loss	superior weight loss agent per total average daily intake	more effective than BHB-S, S-MCT, or Control at preventing weight gain and maintaining a lower weight; also recorded: significantly lower bodyweight	self-restricted calories	induce reductions in white adipose tissue	induced and maintained long-term weight loss	lost significantly more bodyweight
